Assays:
[1] = thrombolysis time and cerebral blood flow after MCAO; type: in vivo, mice; conditions: thrombus not completely dissolved
MACO mice = assay: as above; type: in vivo
[2] = drug release behavior study (rtPA release); type: physicochemical; conditions: in the first hour
Experimental: To measure the loading of rtPA (rtPA-FANC=(MTDS)) in FANC, analysis using […] protein analysis (BCA) was performed. The encapsulation efficiency (EE) of rtPA in FANC is 73.94% and the loading capacity (LC) is 22.49%. To observe the rtPA release rate of FANC, further drug release behavior studies were conducted. […] This slower release behavior can effectively protect rtPA from metabolic effects and reduce the damage caused in the blood circulation system.

[3] = system: neural precursor cells (NPCs); assay: Ki-67 immunohistochemistry of brain sections (NPC proliferation, SVZ and HDG); type: in vivo, mice; conditions: SVZ and HDG areas, versus saline control
Text: FIGS. 9A to 9D show representative images of Ki-67 staining after MTDS with MN treatment in comparison with saline control, free rt-PA, MTDS in SVZ area (FIG. 9A) and HDG area (FIG. 9B). (Scale bar=50 μm). Quantitative data of NPCs by immunohistochemistry staining in SVZ area (FIG. 9C) (Ki-67^+ cells) and HDG area (FIG. 9D) (Ki-67^+ cells).
The subventricular zone (SVZ) and hippocampal dentate gyrus (DG) are known to trigger the activation of resting neural precursor cells (NPCs) when the brain suffers from ischemic injury. NPCs mainly reside in the SVZ, while the DG has the ability to differentiate into a range of neurons and glial cells.

recombinant tissue-type plasminogen activator [rtPA]
CBF recovery, maximum [1]: ≤ 90% | thrombolytic activity (MACO mice; FIG. 8a, right MCA images): able to dissolve the thrombus | time to partial thrombolysis (MACO mice; rtPA 10 mg kg^−1): approximately 80 minutes | blood flow restored (CBF) (MACO mice; within 120 minutes, rtPA 10 mg kg^−1): approximately 80% | rtPA release [2]: more than 60% | number of Ki-67^+ cells [3]: no significant difference
